According to patent publication US6057371A, “Sigma receptor ligands and the use thereof” (Virginia Commonwealth University, priority 1992, dated 2000):
Structures can show the parent of a compound that is named as a salt. Where two headings read alike, the source gives them in different places.

Tests used:
sigma receptor = test: Sigma receptor binding, [^3 H]DTG, brain membranes (both sigma-1 and sigma-2 sites); set-up: species or system guinea pig; conditions: for IC50: Table 6, [^3 H]DTG; for Ki: running text, Examples 5 and 6, read-out: sigma receptor Ki
Procedure: Sigma receptor binding assays using guinea pig brain membrane homogenates and the radioligand [^3 H]DTG were conducted as described by Weber et al.. […] Briefly, frozen whole guinea-pig brains (Biotrol, Indianapolis, Ind.) were homogenized in 10 volumes (w/v) of ice-cold 320 mM sucrose using a Brinkman polytron. The homogenate was centrifuged at 1,000× g for 20 minutes at 4° C. The supernatant was centrifuged at 20,000× g for 20 minutes at 4° C. The resulting pellet was resuspended in 10 initial volumes of 50 mM Tris/HCl buffer at pH 7.4 and centrifuged at 20,000× g for 20 minutes at 4° C. The resulting pellet was resuspended in 5 initial volumes ice-cold 50 mM Tris/Hcl […], and the final volume was adjusted to yield a protein concentration of 3 mg/ml. Aliquots of 20-ml were stored at -70° C. until used, with no detectable loss of binding.
The protein concentration in the 1-ml final incubation volume was 800 ug/ml, corresponding to 32 mg of brain tissue (original wet weight) and to a tissue concentration within the linear range for specific binding. […] Incubations were terminated after 90 minutes at room temperature by addition of 4 ml of ice-cold 50 mM Tris/HCl (pH 7.4) and rapid filtration of the membrane suspension through Whatman GF/B glass-fiber filters under vacuum, using a 48-well cell harvester (Brandel). The filters were washed 2 times with 4 ml of 50 mM Tris/HCl (pH 7.4). Each filter was suspended in 10 ml Cytoscint (ICI), and radioactivity was measured by liquid scintillation spectrometry at a counting efficiency of approximately 50%. IC50 values were determined by non-linear regression analyis.
(§1) Further sigma receptor binding assays against [^3 H]DTG and 5HT-1A binding assays were conducted according to the procedure outlined in the previous examples.
Radioligand Binding. […] Briefly, membranes (P2 microsomal fraction) were diluted 1:3 with 50 mM Tris HCl (pH 7.4) and 0.4 mL was combined with 50 μL [^3 H]DTG (1-2 nM final concentration) and 50 μL of competing drug or buffer. After 90 min at room temperature, incubation was terminated by rapid filtration under vacuum through Whatman GF/B glass fiber filters using a Brandel 48-well cell harvester. Filters were washed three times with 5 mL of cold Tris HCl buffer and each filter was suspended in 5 mL of Cytoscint (ICN Biomedical). Radioactivity was measured by liquid scintillation spectrometry at a counting efficiency of 50%.

5-HT1A receptor = molecular target: T1, 5-HT1A receptor (Rattus norvegicus, UniProt P19327); test: biochemical; type: binding; set-up: 47: 529-540 (1986); from tissue; host or cells: brain tissue, inferred from the cited method (rat frontal cortex)
T1 sequence (P19327 1-422): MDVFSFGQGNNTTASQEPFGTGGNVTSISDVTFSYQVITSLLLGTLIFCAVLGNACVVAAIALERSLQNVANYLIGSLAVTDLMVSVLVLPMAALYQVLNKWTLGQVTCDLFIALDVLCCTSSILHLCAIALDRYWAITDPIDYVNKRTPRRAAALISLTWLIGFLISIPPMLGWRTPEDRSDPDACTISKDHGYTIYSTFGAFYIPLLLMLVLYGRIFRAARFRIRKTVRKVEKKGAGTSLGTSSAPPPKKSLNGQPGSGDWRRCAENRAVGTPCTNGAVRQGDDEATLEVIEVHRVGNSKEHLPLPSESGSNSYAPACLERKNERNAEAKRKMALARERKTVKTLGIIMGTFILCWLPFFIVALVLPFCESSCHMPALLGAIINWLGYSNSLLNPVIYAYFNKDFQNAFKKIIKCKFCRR
Procedure: as §1

sigma-2 binding site = molecular target: T2, sigma-2 binding site (Cavia porcellus, UniProt H0V073); test: biochemical; set-up: species or system guinea pig
T2 construct: Guinea pig whole membrane preparations (P2 microsomal fraction); from tissue; host or cells: guinea pig membranes (P2 microsomal fraction), as described by Weber et al; brain inferred from the sister test b489
T2 sequence (H0V073 1-176): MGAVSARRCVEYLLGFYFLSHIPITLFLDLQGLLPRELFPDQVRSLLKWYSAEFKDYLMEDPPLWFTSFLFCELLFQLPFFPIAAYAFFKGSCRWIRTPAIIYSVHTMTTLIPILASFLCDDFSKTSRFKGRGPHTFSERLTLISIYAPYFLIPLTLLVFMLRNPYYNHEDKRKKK
Procedure: For the standard equilibrium assay, the mixtures were incubated for 30 min. at room temperature, then filtered and the radioactivity determined as described above.

[1] = Table 6, read-out: 5HT-1A (nM) MEAN
[2] = SIGMA-2 KI vs. 3H-DTG + PENTAZOCINE MEAN
[3] = Table 10, read-out: SIGMA-2 KI vs. 3H-DTG + PENTAZOCINE MEAN

| SMILES | IC50 (sigma receptor) [nM] | IC50 (5-HT1A receptor; [1]) [nM] | further results |
| --- | --- | --- | --- |
| CCCc1ccc(CC(C)NCCCc2ccccc2)cc1 (stereo not drawn) [Compound 84] | 6.43 | 168 |  |
| c1ccc(CCCCN2CCC(c3ccccc3)CC2)cc1 [Compound 81] | 0.88 | 43.9 |  |
| C[C@@H](Cc1ccccc1)N(C)CCCCCc1ccccc1 [Compound 69] | 2.25 | 891 |  |
| CC(C)CCN(C)[C@@H](C)Cc1ccccc1 [Compound 115] | 3.04 | 20000 |  |
| CC(C(O)c1ccc(O)cc1)N1CCC(Cc2ccccc2)CC1 (stereo not drawn) [Ifenprodil, reference compound] |  |  | Ki (sigma-2 binding site; [2]): 2.39 nM |
| C=CCN1CC[C@@]2(C)c3cc(O)ccc3C[C@@H]1[C@@H]2C [(-)SKF 10047, reference compound] |  |  | Ki (sigma-2 binding site; [2]): 9130 nM |
| O=C1c2ccccc2C(=O)N1CCCCCN1CCN(c2ccccc2)CC1 [Compound 98] | 6.18 | 2.23 |  |
| C[C@@H]1CN(CCCn2c3ccccc3c3ccccc32)C[C@H](C)N1 [Rimoazole, reference compound] |  |  | Ki (sigma-2 binding site; [2]): 265 nM |
| COc1ccc(OC)c(CC(C)NCCCCc2ccccc2)c1 (stereo not drawn) [Compound 65] | 72.9 | 182 |  |
| CN(CCCCCc1ccccc1)Cc1ccccc1 [Compound 137, N-Benzyl-N-methyl-5-phenylpentylamine] | 1.11 |  | Ki (sigma-2 binding site; [3]): 12.5 nM; IC50 (sigma-2 binding site; Table 18, read-out: IC50 (nM) at sigma-2): 12 nM |
| CC(C)(C)[C@@]1(O)CCN2C[C@@H]3c4ccccc4CCc4cccc(c43)[C@H]2C1 [(-)Butaclamol, reference compound] |  |  | Ki (sigma-2 binding site; [2]): 3420 nM |
| c1ccc(CCCCNCCCCc2ccccc2)cc1 [Compound 73] | 6.98 | 55.7 |  |
| c1ccc(CCCCCCNCCCc2ccccc2)cc1 [Compound 110] | 3.62 | 117 |  |
| OC(CCCN1CCN(c2ncc(F)cn2)CC1)c1ccc(F)cc1 (stereo not drawn) [BMY-14802, reference compound] |  |  | Ki (sigma-2 binding site; [3]): 133 nM |
| c1ccc(CCCNC2CCCc3ccccc3C2)cc1 (stereo not drawn) [Compound 67] | 59.6 | 19.3 |  |
| Clc1ccc(N2CCN(CCCc3ccccc3)CC2)cc1 [Compound 78] | 3.01 | 98.4 |  |
| c1ccc(CCCCCN2CCC(c3ccccc3)CC2)cc1 [Compound 82] | 0.96 | 136 |  |
| c1ccc(CCCCCNCC2CCCCC2)cc1 [Compound 93] | 1.4 | 597 | change in sigma affinity, words (sigma receptor; Example 6): binds with twice the affinity; Ki (sigma receptor): 1.2 nM |
| CC(C)(C)[C@]1(O)CCN2C[C@H]3c4ccccc4CCc4cccc(c43)[C@@H]2C1 [(+)Butaclamol, reference compound] |  |  | Ki (sigma-2 binding site; [2]): 1400 nM |
| CCCc1ccc(CC(C)N(C)CCCc2ccccc2)cc1 (stereo not drawn) [Compound 86] | 2.43 | 502 |  |
| COc1cc(CC(C)NCCCCc2ccccc2)c(OC)cc1Br (stereo not drawn) [Compound 66] | 45.1 | 272 |  |
| c1ccc(CCCCNCCCc2ccccc2)cc1 [Compound 72] | 7.23 | 11.3 |  |
| C[C@@H](Cc1ccccc1)N(C)CCCc1ccc2ccccc2c1 [Compound 68] | 3.25 | 1320 |  |
| CC(C)=CCN(C)[C@@H](C)Cc1ccccc1 [Compound 114] | 6.71 | 34000 |  |
| OC1(Cc2ccccc2)CCN(CCCCCc2ccccc2)CC1 [Compound 118] | 2.14 | 1970 |  |
| c1ccc(CCCNCCCC2CCCCC2)cc1 [Compound 92, N-(3-Cyclohexylpropyl)-3-phenylpropylamine Hydrochloride] | 2.99 | 26.3 | Ki (sigma receptor): 2.4 nM |
| C[C@@H](Cc1ccccc1)N(C)CCc1ccccc1 [Compound 36] |  |  | Ratio 5-HT1A /σ (5-HT1A receptor; Table 5): 239; IC50 (5-HT1A receptor; Table 5, read-out: 5-HT1A IC50): 1630 nM |
| CC(Cc1ccc(OCc2ccccc2)cc1)NCCCc1ccccc1 (stereo not drawn) [Compound 85] | 28.1 | 1150 |  |
